Data set [1] can be described thus: Compound cytotoxicity, XTT-based colorimetric assay. Type of data set: cell-based. To be noted: human; uninfected MT2 cells, day 4, XTT; read-out: CC50. In a few lines:
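Run under the antiviral-assay protocol but without virus. Viability was read on day 4 and CC50 values were derived from the readout.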

In a further data set the test system is recombinant NL4-3 virus. Description: HIV cell culture assay (antiviral activity, luciferase readout in MT-2 cells). It counts as cell-based. To be noted: Human immunodeficiency virus 1, NL43, MT2. An outline of the steps:
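MT-2 cells infected for 4-5 days with NL4-3 reference virus carrying Renilla luciferase in place of part of nef, in presence of serial compound dilutions. Luciferase activity read with live-cell substrate. EC50 derived from median effect equation, slope parameter m.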

Our source for the CC50 and EC50 values is US20210395262A1, “INHIBITORS OF HUMAN IMMUNODEFICIENCY VIRUS REPLICATION” (ViiV HEALTHCARE UK (NO.5) LIMITED, priority 2018, published 2021).

Bounds are passed on as bounds.

Regarding `Cn1nc(NS(C)(=O)=O)c2c(Cl)ccc(-n3c([C@H](Cc4cc(F)cc(F)c4)NC(=O)Cn4nc(C(F)F)c5c4C(F)(F)[C@@H]4C[C@H]54)nc4cc(N5CC=CC5)ccc4c3=O)c21` (atropisomer, axis not shown; (P)) [Example 31, N—((S)-1-((3P)-3-(4-chloro-1-methyl-3-(methylsulfonamido)-1H-indazol-7-yl)-7-(2,5-dihydro-1H-pyrrol-1-yl)-4-oxo-3,4-dihydroquinazolin-2-yl)-2-(3,5-difluorophenyl)ethyl)-2-((3bS,4aR)-3-(difluoromethyl)-5,5-difluoro-3b,4,4a,5-tetrahydro-1H-cyclopropa[3,4]cyclopenta[1,2-c]pyrazol-1-yl)acetamide], the CC50 at 4 days in data set [1] is greater than 500 nM. In addition, in the data set on recombinant NL4-3 virus, the EC50 was 0.127 nM.
Turning to `C[C@@H]1CN(c2ccc3c(=O)n(-c4ccc(Cl)c5c(NS(=O)(=O)C6CC6)nn(CC(F)(F)F)c45)c([C@H](Cc4cc(F)cc(F)c4)NC(=O)Cn4nc(C(F)(F)F)c5c4C(F)(F)[C@@H]4C[C@H]54)nc3c2)C[C@H](C)O1` (atropisomer, axis not shown; (P)) [Example 63, N—((S)-1-((3P)-3-(4-chloro-3-(cyclopropanesulfonamido)-1-(2,2,2-trifluoroethyl)-1H-indazol-7-yl)-7-((2S,6R)-2,6-dimethylmorpholino)-4-oxo-3,4-dihydroquinazolin-2-yl)-2-(3,5-difluorophenyl)ethyl)-2-((3bS,4aR)-5,5-difluoro-3-(trifluoromethyl)-3b,4,4a,5-tetrahydro-1H-cyclopropa[3,4]cyclopenta[1,2-c]pyrazol-1-yl)acetamide], the cytotoxic concentration (CC50) at 4 days in data set [1] was greater than 500 nM. Besides, the EC50 with recombinant NL4-3 virus was 0.15 nM.
Turning to `COC[C@@H]1CCCN1c1ccc2c(=O)n(-c3ccc(Cl)c4c(NS(C)(=O)=O)nn(C)c34)c([C@H](Cc3cc(F)cc(F)c3)NC(=O)Cn3nc(C(F)F)c4c3C(F)(F)[C@@H]3C[C@H]43)nc2c1` (atropisomer, axis not shown; (P)) [Example 3, N—((S)-1-((3P)-3-(4-chloro-1-methyl-3-(methylsulfonamido)-1H-indazol-7-yl)-7-((S)-2-(methoxymethyl)pyrrolidin-1-yl)-4-oxo-3,4-dihydroquinazolin-2-yl)-2-(3,5-difluorophenyl)ethyl)-2-((3bS,4aR)-3-(difluoromethyl)-5,5-difluoro-3b,4,4a,5-tetrahydro-1H-cyclopropa[3,4]cyclopenta[1,2-c]pyrazol-1-yl)acetamide], the half-maximal cytotoxic concentration (CC50) at 4 days in data set [1] was greater than 500 nM. In addition, the concentration for a half-maximal effect (EC50) in the data set with recombinant NL4-3 virus was 0.175 nM.
The matching figures for `CO[C@@H]1CCN(c2ccc3c(=O)n(-c4ccc(Cl)c5c(NS(C)(=O)=O)nn(C)c45)c([C@H](Cc4cc(F)cc(F)c4)NC(=O)Cn4nc(C(F)F)c5c4C(F)(F)[C@@H]4C[C@H]54)nc3c2)C1` (atropisomer, axis not shown; (P)) [Example 5, N—((S)-1-((3P)-3-(4-chloro-1-methyl-3-(methylsulfonamido)-1H-indazol-7-yl)-7-((R)-3-methoxypyrrolidin-1-yl)-4-oxo-3,4-dihydroquinazolin-2-yl)-2-(3,5-difluorophenyl)ethyl)-2-((3bS,4aR)-3-(difluoromethyl)-5,5-difluoro-3b,4,4a,5-tetrahydro-1H-cyclopropa[3,4]cyclopenta[1,2-c]pyrazol-1-yl)acetamide]: greater than 500 nM and 0.05 nM.
Regarding `CN1CCN(c2ccc3c(=O)n(-c4ccc(Cl)c5c(NS(C)(=O)=O)nn(C)c45)c([C@H](Cc4cc(F)cc(F)c4)NC(=O)Cn4nc(C(F)F)c5c4C(F)(F)[C@@H]4C[C@H]54)nc3c2)CC1` (atropisomer, axis not shown; (P)) [Example 11, N—((S)-1-((3P)-3-(4-chloro-1-methyl-3-(methylsulfonamido)-1H-indazol-7-yl)-7-(4-methylpiperazin-1-yl)-4-oxo-3,4-dihydroquinazolin-2-yl)-2-(3,5-difluorophenyl)ethyl)-2-((3bS,4aR)-3-(difluoromethyl)-5,5-difluoro-3b,4,4a,5-tetrahydro-1H-cyclopropa[3,4]cyclopenta[1,2-c]pyrazol-1-yl)acetamide], in data set [1], the half-maximal cytotoxic concentration (CC50) at 4 days is greater than 10000 nM. Besides, the EC50 in the data set with recombinant NL4-3 virus stood at 0.117 nM.
The matching figures for `Cn1nc(NS(C)(=O)=O)c2c(Cl)ccc(-n3c([C@H](Cc4cc(F)cc(F)c4)NC(=O)Cn4nc(C(F)F)c5c4C(F)(F)[C@@H]4C[C@H]54)nc4cc(N5CCCCCC5)ccc4c3=O)c21` (atropisomer, axis not shown; (P)) [Example 2, N—((S)-1-(7-(azepan-1-yl)-(3P)-3-(4-chloro-1-methyl-3-(methylsulfonamido)-1H-indazol-7-yl)-4-oxo-3,4-dihydroquinazolin-2-yl)-2-(3,5-difluorophenyl)ethyl)-2-((3bS,4aR)-3-(difluoromethyl)-5,5-difluoro-3b,4,4a,5-tetrahydro-1H-cyclopropa[3,4]cyclopenta[1,2-c]pyrazol-1-yl)acetamide]: greater than 500 nM and 0.243 nM.
The matching figures for `C[C@@H]1CN(c2ccc3c(=O)n(-c4ccc(Cl)c5c(NS(C)(=O)=O)nn(C)c45)c([C@H](Cc4cc(F)cc(F)c4)NC(=O)Cc4cn(C5CC5)c5ccccc45)nc3c2)C[C@H](C)O1` (atropisomer, axis not shown; (P)) [Example 53, N—((S)-1-((3P)-3-(4-chloro-1-methyl-3-(methylsulfonamido)-1H-indazol-7-yl)-7-((2S,6R)-2,6-dimethylmorpholino)-4-oxo-3,4-dihydroquinazolin-2-yl)-2-(3,5-difluorophenyl)ethyl)-2-(1-cyclopropyl-1H-indol-3-yl)acetamide]: greater than 500 nM and 0.81 nM.
The matching figures for `O=C(Cn1nc(C(F)F)cc1C1CC1)N[C@@H](Cc1cc(F)cc(F)c1)c1nc2cc(N3CCCCC3)ccc2c(=O)n1-c1ccc(Cl)c2c(NS(=O)(=O)C3CC3)nn(CC(F)F)c12` (atropisomer, axis not shown; (P)) [Example 39, (S)—N-(1-((3P)-3-(4-chloro-3-(cyclopropanesulfonamido)-1-(2,2-difluoroethyl)-1H-indazol-7-yl)-4-oxo-7-(piperidin-1-yl)-3,4-dihydroquinazolin-2-yl)-2-(3,5-difluorophenyl)ethyl)-2-(5-cyclopropyl-3-(difluoromethyl)-1H-pyrazol-1-yl)acetamide]: greater than 1000 nM and 3.72 nM.
In the case of `Cn1nc(NS(C)(=O)=O)c2c(Cl)ccc(-n3c([C@H](Cc4cc(F)cc(F)c4)NC(=O)Cn4nc(C(F)F)c5c4C(F)(F)[C@@H]4C[C@H]54)nc4cc(N5CCCCC5)ccc4c3=O)c21` (atropisomer, axis not shown; (P)) [Example 14, N—((S)-1-((3P)-3-(4-chloro-1-methyl-3-(methylsulfonamido)-1H-indazol-7-yl)-4-oxo-7-(piperidin-1-yl)-3,4-dihydroquinazolin-2-yl)-2-(3,5-difluorophenyl)ethyl)-2-((3bS,4aR)-3-(difluoromethyl)-5,5-difluoro-3b,4,4a,5-tetrahydro-1H-cyclopropa[3,4]cyclopenta[1,2-c]pyrazol-1-yl)acetamide], in data set [1], the half-maximal cytotoxic concentration (CC50) at 4 days was greater than 1000 nM. In addition, in the data set with recombinant NL4-3 virus, the concentration giving a half-maximal response (EC50) came out at 0.242 nM.
The matching figures for `C[C@@H]1CN(c2ccc3c(=O)n(-c4ccc(Cl)c5c(NS(C)(=O)=O)nn(CC(F)(F)F)c45)c([C@H](Cc4cc(F)cc(F)c4)NC(=O)Cn4nc(C(F)F)cc4C4CC4)nc3c2)C[C@H](C)O1` (atropisomer, axis not shown; (P)) [Example 59, N—((S)-1-((3P)-3-(4-chloro-3-(methylsulfonamido)-1-(2,2,2-trifluoroethyl)-1H-indazol-7-yl)-7-((2S,6R)-2,6-dimethylmorpholino)-4-oxo-3,4-dihydroquinazolin-2-yl)-2-(3,5-difluorophenyl)ethyl)-2-(5-cyclopropyl-3-(difluoromethyl)-1H-pyrazol-1-yl)acetamide]: greater than 500 nM and 0.42 nM.
The matching figures for `C[C@@H]1CN(c2ccc3c(=O)n(-c4ccc(Cl)c5c(NS(=O)(=O)C6CC6)nn(CC(F)F)c45)c([C@H](Cc4cc(F)cc(F)c4)NC(=O)Cn4nc(C(F)F)cc4C(F)F)nc3c2)C[C@H](C)O1` (atropisomer, axis not shown; (P)) [Example 38, 2-(3,5-bis(difluoromethyl)-1H-pyrazol-1-yl)-N—((S)-1-((3P)-3-(4-chloro-3-(cyclopropanesulfonamido)-1-(2,2-difluoroethyl)-1H-indazol-7-yl)-7-((2S,6R)-2,6-dimethylmorpholino)-4-oxo-3,4-dihydroquinazolin-2-yl)-2-(3,5-difluorophenyl)ethyl)acetamide]: greater than 1000 nM and 1.22 nM.
The matching figures for `Cn1nc(NS(C)(=O)=O)c2c(Cl)ccc(-n3c([C@H](Cc4cc(F)cc(F)c4)NC(=O)Cn4nc(C(F)F)c5c4C(F)(F)[C@@H]4C[C@H]54)nc4cc(N5CC6(COC6)C5)ccc4c3=O)c21` (atropisomer, axis not shown; (P)) [Example 21, N—((S)-1-((3P)-3-(4-chloro-1-methyl-3-(methylsulfonamido)-1H-indazol-7-yl)-4-oxo-7-(2-oxa-6-azaspiro[3.3]heptan-6-yl)-3,4-dihydroquinazolin-2-yl)-2-(3,5-difluorophenyl)ethyl)-2-((3bS,4aR)-3-(difluoromethyl)-5,5-difluoro-3b,4,4a,5-tetrahydro-1H-cyclopropa[3,4]cyclopenta[1,2-c]pyrazol-1-yl)acetamide]: greater than 500 nM and 0.064 nM.
